Data published in US10729694B2 (AI Therapeutics, Inc., priority 2015, dated 2020).

Legend:
[1] = tested on: representative cancer cell line; test: Vacuolization and disruption of intracellular trafficking in cells; conditions: live cells treated with 500 nM, 24 h
456 kinases = assay type: binding

Structure (SMILES): Cc1cccc(/C=N/Nc2cc(N3CCOCC3)nc(OCCc3ccccn3)n2)c1 [apilimod]
- vacuolization [1]: induces vacuolization
- binding to panel of 456 kinases (456 kinases): did not bind to any of the 456 kinases tested
